Measurements taken from patent US8598159B2, “Therapeutic pyrazoloquinoline derivatives” (Dart Neuroscience (Cayman) Ltd., priority 2007, dated 2013).

What was measured:
[1] = test system: GABAA receptors; assay: Electrophysiology assay (two-electrode voltage clamp, Xenopus oocytes expressing GABAA receptors); type: cell-based; conditions: positive (Pos) or negative (Neg) modulation of current at GABA EC20, screening concentration of 10 μM
Method: The modulation of GABAA function is determined by changes in current as determined in an electrophysiology assay, as is detailed below.
mRNA was prepared from lyophilized plasmid pellets containing cDNA inserts encoding the specific GABAA receptor subunit. cDNAs encoding the α2, α3, and γ3 subunits were subcloned into pBluescript, SK^−. cDNAs encoding the a 1 and a 5 subunits were subcloned into prC while cDNA encoding the β2 subunit was subcloned into pcDNA1. The cDNA construct encoding the g 2s subunit is in the pGH19 expression construct. Overnight cultures of transformed DH5a bacterial cells were performed to grow sufficient quantities for maxiprep isolation of the plasmid cDNA. The resulting plasmid cDNA was linearized by digestion with an appropriate restriction enzyme that cleaves distal to the cDNA insert [XbaI (α1, β2), NotI (α3, γ2 s), SacII (α2), or ApaI (α5)]. Following digestion, plasmid cDNA was treated with proteinase K and extracted with phenol/chloroform/isoamyl alcohol, followed by ethanol precipitation. cDNA quality was assessed by agarose-gel electrophoresis (1.5% agarose gel). Samples were stored at −20° C. until use. In vitro transcription was performed with T7 RNA polymerase. mRNA was then stored at −80° C. until use. Plasmids were linearized with appropriate restriction enzymes before in vitro transcription using the Message Machine kit (Ambion, Austin, Tex.).
GABAA receptor expression in Xenopus oocytes: Following 45 min of 0.15% Tricaine anesthesia, an ovarian section containing the follicular oocytes was removed from the frog through a lateral abdominal incision. Oocytes were immediately placed in a calcium-free solution (NaCl 96 mM, MgCl2 1 mM, KCl 2 mM, Hepes 50 mM, pyruvate 2.5 mM, gentamycin 100 μg/mL, penicillin-streptomycin 50 U/mL, pH 7.4). Following 1.5-2 hour incubation in 0.2% collagenase (type II, Sigma Chemical Co., St. Louis, Mo.) at room temperature, individual Dumont stage V and VI oocytes were transferred to an incubator and maintained overnight in Barth's solution (NaCl 84 mM, NaHCO3 2.4 mM, MgSO4 0.82 mM, KCl 1 mM, Ca(NO3)2 0.33 mM, CaCl2 0.41 mM, Tris/HCl 7.5 mM, pyruvate 2.5 mM, gentamycin 50 μg/mL, penicillin-streptomycin, 100 units/mL, pH 7.4) at 18-20° C. and used for experiments 1-5 days post-injection. Oocytes were injected solution using an electronic microinjector (Drummond, Broomall, Pa.) with 50 nL of RNA containing 0.3-0.5 ng of each subunit RNA in a 1:1:2 ratio. The injected oocytes were used for experiments after 1-5 days of incubation in Barth's solution at 18-20° C.
Measurements of ion currents from oocytes expressing GABAA receptors were performed using a Warner two-electrode voltage-clamp amplifier (Warner Instruments, Inc., Foster City, Calif.) (Park-Chung, M. A., et al. (1999) Brain Res. 830: 72-87 incorporated herein in its entirety). Microelectrodes were fabricated from borosilicate glass capillaries with a programmed pipette puller (Sutter Instrument Co., CA). Microelectrode resistance was 1-3 MΩ when filled with 3 M KCl. The oocyte recording chamber was continuously perfused with ND-96 solution. Oocytes were clamped at a holding potential of −70 mV during data acquisition. The membrane current was filtered at 10 Hz and sampled at 100 Hz. Compounds were applied by a gravity-driven external perfusion system. The working volume of the recording chamber was […] and the rate of the perfusion was approximately […]. Compound application was 20-25 sec followed by a minimum of 150 sec wash. Data acquisition and external perfusion was computer controlled by custom-developed software. All experiments were performed at room temperature (22-24° C.). Dose-response data from each oocyte were fitted to the Hill equation by non-linear regression using the equation: IGABA=Emax/(1+(EC50/c)nH)
Emax is the maximum response, EC50 is the concentration producing 50% of the maximal response, nH is the Hill coefficient and c is the concentration of agonist. […]

[2] = molecular target: GABAA central benzodiazepine receptor; assay: Benzodiazepine binding assay ((3H)-flunitrazepam displacement); conditions: read-out: BZ binding assay (IC50); rat whole brain (except cerebellum), 1 nM (3H)-flunitrazepam, 60 minutes at 25° C.; 3-concentration dose response curve

Compound | EP Result [1] | IC50 [2] [µM]
CN1CCN(c2ccc3[nH]cc4c(=O)n(-c5ccc(Cl)cc5)nc-4c3c2)CC1 [7d, 2-(4′-Chlorophenyl)-8-(4-methylpiperazin-1-yl)-2,5-dihydro-pyrazolo[4,3-c]quinolin-3-one] | Pos | < 1
COc1ccc(-n2nc3c4cc(N5CCNCC5)ccc4[nH]cc-3c2=O)cc1 [7e, 2-(4′-Methoxyphenyl)-8-piperazin-1-yl-2,5-dihydro-pyrazolo[4,3-c]quinolin-3-one] | Pos | < 1
COc1ccc(-n2nc3c4cc(N5CCN(C)CC5)ccc4[nH]cc-3c2=O)cc1 [7f, 2-(4′-Methoxyphenyl)-8-(4-methylpiperazin-1-yl)-2,5-dihydro-pyrazolo[4,3-c]quinolin-3-one] | Pos | < 1
O=c1c2c[nH]c3cc(N4CCNCC4)ccc3c-2nn1-c1ccccc1 [14a, 2-Phenyl-7-piperazin-1-yl-2,5-dihydro-pyrazolo[4,3-c]quinolin-3-one] | Neg | > 1
CN1CCN(c2ccc3c4nn(-c5ccccc5)c(=O)c-4c[nH]c3c2)CC1 [14b, 7-(4-Methylpiperazin-1-yl)-2-phenyl-2,5-dihydro-pyrazolo[4,3-c]quinolin-3-one] | Neg | < 1
O=c1c2c[nH]c3cc(N4CCNCC4)ccc3c-2nn1-c1ccc(Cl)cc1 [14c, 2-(4′-Chlorophenyl)-7-piperazin-1-yl-2,5-dihydro-pyrazolo[4,3-c]quinolin-3-one] | Neg | < 1
CN1CCN(c2ccc3c4nn(-c5ccc(Cl)cc5)c(=O)c-4c[nH]c3c2)CC1 [14d, 2-(4-Chlorophenyl)-7-(4-methylpiperazin-1-yl)-2,5-dihydro-pyrazolo[4,3-c]quinolin-3-one] | Neg | < 1
COc1ccc(-n2nc3c4ccc(N5CCNCC5)cc4[nH]cc-3c2=O)cc1 [14e, 2-(4-Methoxyphenyl)-7-piperazin-1-yl-2,5-dihydro-pyrazolo[4,3-c]quinolin-3-one] | Neg | < 1
COc1ccc(-n2nc3c4ccc(N5CCN(C)CC5)cc4[nH]cc-3c2=O)cc1 [14f, 2-(4-Methoxyphenyl)-7-(4-methylpiperazin-1-yl)-2,5-dihydro-pyrazolo[4,3-c]quinolin-3-one] | Neg | > 1
O=c1c2c[nH]c3cc(F)c(N4CCOCC4)cc3c-2nn1-c1ccccc1 [19a, 7-Fluoro-8-morpholin-4-yl-2-phenyl-2,5-dihydro-pyrazolo[4,3-c]quinolin-3-one] | Pos | < 0.001
CC(C)N1CCN(c2ccc3[nH]cc4c(=O)n(-c5ccccc5)nc-4c3c2)CC1 [19b, 8-(4-Isopropylpiperazin-1-yl)-2-phenyl-2,5-dihydro-pyrazolo[4,3-c]quinolin-3-one] | Pos | < 1
O=c1c2c[nH]c3ccc(N4CCOCC4)cc3c-2nn1-c1ccccn1 [19c, 8-Morpholin-4-yl-2-pyridin-2-yl-2,5-dihydro-pyrazolo[4,3-c]quinolin-3-one] | Neg | < 1
O=c1c2c[nH]c3ccc(N4CCOCC4)cc3c-2nn1-c1ccccc1 [19d, 8-Morpholin-4-yl-2-phenyl-2,5-dihydro-pyrazolo[4,3-c]quinolin-3-one] | Neg | < 1
O=c1c2c[nH]c3ccc(N4CCOCC4)cc3c-2nn1-c1ccccc1F [19e, 2-(2-Fluorophenyl)-8-morpholin-4-yl-2,5-dihydro-pyrazolo[4,3-c]quinolin-3-one] | Neg | < 1
COCCN1CCN(c2ccc3[nH]cc4c(=O)n(-c5ccccc5)nc-4c3c2)CC1 [19f, 8-[4-(2-Methoxyethyl)-piperazin-1-yl]-2-phenyl-2,5-dihydro-pyrazolo[4,3-c]quinolin-3-one] | Pos | < 1
O=c1c2c[nH]c3ccc(N4CCCCC4)cc3c-2nn1-c1ccccc1 [19g, 2-Phenyl-8-piperidin-1-yl-2,5-dihydro-pyrazolo[4,3-c]quinolin-3-one] | Pos | < 1
COc1ccc(-n2nc3c4cc(N5CCN(C(C)C)CC5)ccc4[nH]cc-3c2=O)cc1 [19i, 8-(4-Isopropylpiperazin-1-yl)-2-(4-methoxyphenyl)-2,5-dihydro-pyrazolo[4,3-c]quinolin-3-one] | Pos | < 1
O=c1c2c[nH]c3cc(Cl)c(N4CCNCC4)cc3c-2nn1-c1ccccc1 [19j, 7-Chloro-2-phenyl-8-piperazin-1-yl-2,5-dihydro-pyrazolo[4,3-c]quinolin-3-one] | Neg | < 1
O=c1c2c[nH]c3cc(Cl)c(N4CCOCC4)cc3c-2nn1-c1ccccc1 [19k, 7-Chloro-8-morpholin-4-yl-2-phenyl-2,5-dihydro-pyrazolo[4,3-c]quinolin-3-one] | Pos | < 1
O=c1c2c[nH]c3cc(N4CCNCC4)c(F)cc3c-2nn1-c1ccsc1 [28p, 8-fluoro-7-(piperazin-1-yl)-2-(thiophen-3-yl)-2,5-dihydro-pyrazolo[4,3-c]quinolin-3-one] | Neg | < 1

Further lines, results first:

EP Result [1] | IC50 [2] [µM] | Compound
Pos | < 1 | O=c1c2c[nH]c3cc(N4CCOCC4)c(F)cc3c-2nn1-c1ccccc1 [28b, 8-Fluoro-7-morpholin-4-yl-2-phenyl-2,5-dihydro-pyrazolo[4,3-c]quinolin-3-one]
Pos | < 1 | CC(C)N1CCN(c2cc3[nH]cc4c(=O)n(-c5ccccc5)nc-4c3cc2F)CC1 [28c, 8-Fluoro-7-(4-isopropylpiperazin-1-yl)-2-phenyl-2,5-dihydro-pyrazolo [4,3-c]quinolin-3-one]
Neg | < 1 | O=c1c2c[nH]c3cc(N4CCOCC4)c(F)cc3c-2nn1-c1ccccn1 [28d, 8-Fluoro-7-(morpholin-4-yl)-2-pyridin-2-yl-2,5-dihydro-pyrazolo[4,3-c]quinolin-3-one]
Pos | < 1 | CC1CC(C)CN(c2cc3[nH]cc4c(=O)n(-c5ccccc5)nc-4c3cc2F)C1 (centres unmarked) [28e, 7-(3,5-Dimethylpiperidin-1-yl)-8-fluoro-2-phenyl-2,5-dihydro-pyrazolo[4,3-c]quinolin-3-one]
Pos | < 1 | CN1CCN(c2cc3[nH]cc4c(=O)n(-c5ccccn5)nc-4c3cc2F)CC1 [28f, 8-Fluoro-7-(4-methylpiperazin-1-yl)-2-pyridin-2-yl-2,5-dihydro-pyrazolo[4,3-c]quinolin-3-one]
Pos | < 1 | CC1CN(c2cc3[nH]cc4c(=O)n(-c5ccccc5)nc-4c3cc2F)CC(C)O1 (centres unmarked) [28g, 7-(2,6-Dimethylmorpholin-4-yl)-8-fluoro-2-phenyl-2,5-dihydro-pyrazolo[4,3-c]quinolin-3-one]
Pos | < 1 | O=c1c2c[nH]c3cc(N4CCOCC4)ccc3c-2nn1-c1ccccc1 [28h, 7-Morpholin-4-yl-2-phenyl-2,5-dihydro-pyrazolo[4,3-c]quinolin-3-one]
Neg | < 1 | O=c1c2c[nH]c3c(F)c(N4CCNCC4)c(F)cc3c-2nn1-c1ccccc1 [44a, 6,8-Difluoro-2-phenyl-7-piperazin-1-yl-2,5-dihydro-pyrazolo[4,3-c]quinolin-3-one]
